Where two headings read alike, the source gives them in different places. Values belong to the compound of their own block, whether it stands above or below them.
Experiments:
[1] = Rodent pharmacokinetics: oral bioavailability and clearance in male mice; parameters: species or system mouse; conditions: in vivo
Protocol: Formulation: 10% DMSO, 90% Saline
Dosing: 10 mg/kg P.O. and 5 mg/kg I.V.
Animals in Group 1 were administered intravenously with Example B solution formulation in 20% Propylene Glycol, 50% of PEG 400 and 30% of (20% HPβCD in water) via tail vein at a dose of 3 mg/kg.
Animals in Group 2 were administered with oral solution formulation of Example B in 20% Propylene Glycol, 50% of PEG 400 and 30% of (20% HPβCD in water) at a dose of 10 mg/kg;
Dosing: 10 mg/kg P.O. and 3 mg/kg I.V.
Animals in Group 1 were administered intravenously with Example G solution formulation in 5% NMP, 5% solutol HS-15 in 90% HPβCD solution (20% HPβCD in RO water) at 3 mg/kg dose.
Animals in Group 2 were administered orally with 10 mg/kg solution formulation of Example G in 5% NMP, 5% solutol HS-15 in 90% HPβCD solution (20% HPβCD in RO water)

[2] = tested on: panel of 94 cancer cell lines; assay: Potentiation study #2015030003, SRB proliferation assay; assay type: cell-based; conditions: 72 h
Protocol: (§1) 48 hours later, cells were treated with 10μL media containing compound at 20× final concentration (resulting in a final DMSO concentration of 0.1%). […] In addition, control plates with cells not exposed to compound were analyzed after 48 hours (time zero, Tz). […] Briefly—after compound treatment, media was aspirated and cells were fixed by addition of 10% TCA.
(§2) Average background optical density (derived from plates and wells containing medium without cells) was subtracted from the optical density values from all controls and treated cells.

[3] = tested on: MINO cells (mantle cell lymphoma); assay: SRB proliferation assay (potentiation and concentration matrix studies); assay type: cell-based, human; conditions: in the presence of 100 nM Compound A, GI50 shift, z-score and/or HSA analysis
Protocol: (§3) Cell lines marked with ‡ were also tested in study #2015030004.
as §1, §2

[4] = tested on: PC-3 cells (prostate adenocarcinoma); assay: as above; assay type: cell-based, human; conditions: PC-3, in the presence of 100 nM Compound A; GI50 shift, z-score and/or HSA analysis
Protocol: as §3, §1, §2

[5] = tested on: LoVo cells (colorectal adenocarcinoma); assay: SRB proliferation assay (potentiation study); assay type: cell-based, human; conditions: in the presence of 100 nM Compound A, GI50 shift, z-score and/or HSA analysis
Protocol: as §1, §2

Human HDAC1 = biological target: T1, Human HDAC1 (Homo sapiens, UniProt Q13547); assay: HDAC biochemical assay with acetylated AMC-labeled peptide substrate; conditions: read-out: IC50 HDAC 1
T1 construct: full length with C-terminal His-tag and C-terminal FLAG-tag; His-tag (C); FLAG-tag (C); made in house; host or cells: baculovirus expression system
Protocol: (§4) Activity against all zinc-dependent HDACs 1 to 11 was assessed by using an acetylated AMC-labeled peptide substrate. The substrate RHKKAc was used for all class I and IIb HDACs; for HDAC8, the substrate used was RHKAcKAc. […] All assays were based on the AMC-labeled substrate and developer combination.
(§5) The protocol involved a two-step reaction: first, the substrate with the acetylated lysine side chain is incubated with a sample containing HDAC activity, to produce the deacetylated products, which are then digested in the second step by the addition of developer to produce the fluorescent signal proportional to the amount of deacetylated substrates.
Human HDAC1 (GenBank Accession No. NM_004964), full length with C-terminal His-tag and C-terminal FLAG-tag, MW=56 kDa, expressed in baculovirus expression system.
(§6) Before use, 1 mg/mL BSA and DMSO are added.
(§7) Incubate for 2 hours at 30° C.
(§8) Fluorescence background signal is then subtracted from compound data signal.
(§9) Stage 1: Deacetylation of substrate by incubation of HDAC enzymes with compounds
(§10) Stage 2: Development by addition of Developer to digest the deacetylated substrate, and generate the fluorescent color; Detection: 360/460 Ex/Em

Recombinant human HDAC6 = biological target: T2, Recombinant human HDAC6 (Homo sapiens, UniProt Q9UBN7); assay: as above; conditions: read-out: IC50 HDAC 6
T2 construct: GST (N); made in house; host or cells: Sf9 insect cells (baculovirus)
T2 sequence (Q9UBN7 1-1215): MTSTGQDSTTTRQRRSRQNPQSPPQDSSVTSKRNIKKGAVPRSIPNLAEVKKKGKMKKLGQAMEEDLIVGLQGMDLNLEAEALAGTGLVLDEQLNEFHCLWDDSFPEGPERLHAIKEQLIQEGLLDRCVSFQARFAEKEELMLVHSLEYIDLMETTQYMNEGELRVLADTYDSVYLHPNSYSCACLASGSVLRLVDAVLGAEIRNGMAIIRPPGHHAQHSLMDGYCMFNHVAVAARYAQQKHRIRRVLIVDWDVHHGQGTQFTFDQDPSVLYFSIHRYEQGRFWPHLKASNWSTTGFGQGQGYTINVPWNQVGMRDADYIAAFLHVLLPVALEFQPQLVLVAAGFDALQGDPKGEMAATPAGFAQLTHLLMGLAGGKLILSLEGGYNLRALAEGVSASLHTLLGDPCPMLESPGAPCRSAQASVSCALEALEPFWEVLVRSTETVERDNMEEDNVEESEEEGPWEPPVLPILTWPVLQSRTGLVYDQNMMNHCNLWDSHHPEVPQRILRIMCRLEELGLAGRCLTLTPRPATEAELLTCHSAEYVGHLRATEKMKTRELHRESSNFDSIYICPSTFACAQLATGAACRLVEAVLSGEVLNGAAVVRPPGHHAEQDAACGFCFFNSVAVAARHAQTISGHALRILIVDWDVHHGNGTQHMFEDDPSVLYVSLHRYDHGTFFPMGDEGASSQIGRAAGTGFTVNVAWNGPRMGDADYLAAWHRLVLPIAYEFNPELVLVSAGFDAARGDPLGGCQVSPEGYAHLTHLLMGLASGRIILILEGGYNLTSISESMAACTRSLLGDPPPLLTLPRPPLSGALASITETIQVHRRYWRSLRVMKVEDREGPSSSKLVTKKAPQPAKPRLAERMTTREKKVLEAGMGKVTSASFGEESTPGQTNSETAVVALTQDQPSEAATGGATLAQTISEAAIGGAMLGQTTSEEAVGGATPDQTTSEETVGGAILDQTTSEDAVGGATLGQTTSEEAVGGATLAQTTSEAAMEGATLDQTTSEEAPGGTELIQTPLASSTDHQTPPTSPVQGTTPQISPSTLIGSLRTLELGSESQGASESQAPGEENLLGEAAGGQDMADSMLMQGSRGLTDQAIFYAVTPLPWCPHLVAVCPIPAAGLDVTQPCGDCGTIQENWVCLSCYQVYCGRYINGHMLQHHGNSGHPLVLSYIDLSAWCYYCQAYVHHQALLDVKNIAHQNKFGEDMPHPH
Protocol: as §4, §5
Human HDAC5 (GenBank Accession No. NM_005474), full length with N-terminal GST tag, MW=150 kDa, expressed in baculovirus expression system. Recombinant human HDAC6 (GenBank Accession No. BC069243), full length, MW=180 kDa, was expressed by baculovirus in Sf9 insect cells using an N-terminal GST tag.
as §6, §7, §8, §9, §10

T1 sequence (Q13547 whole entry): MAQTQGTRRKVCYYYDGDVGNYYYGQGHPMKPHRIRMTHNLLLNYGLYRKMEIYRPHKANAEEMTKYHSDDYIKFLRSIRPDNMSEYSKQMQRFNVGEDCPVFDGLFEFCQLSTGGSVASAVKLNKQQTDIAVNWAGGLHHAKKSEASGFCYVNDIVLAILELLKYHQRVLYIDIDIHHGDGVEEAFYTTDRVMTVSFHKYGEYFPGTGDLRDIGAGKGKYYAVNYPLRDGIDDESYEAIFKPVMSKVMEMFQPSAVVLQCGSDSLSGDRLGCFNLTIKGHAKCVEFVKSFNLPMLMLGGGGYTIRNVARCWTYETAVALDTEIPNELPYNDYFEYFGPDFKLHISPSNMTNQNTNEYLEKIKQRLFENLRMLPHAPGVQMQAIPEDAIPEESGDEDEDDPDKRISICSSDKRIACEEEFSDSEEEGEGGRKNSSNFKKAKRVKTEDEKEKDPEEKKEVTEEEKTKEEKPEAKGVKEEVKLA

Oral Bioavailability (F) ([1]; male, mouse, po, 10 mg/kg): 28
Structure (SMILES): c1cc(-c2nc(N3CCOCC3)c3oc4ncc(CN5CCCCC5)cc4c3n2)c2cc[nH]c2c1 [Example I in WO2011/021038, reference compound]

F ([1]; mouse): 74%
AUC(0-t) ([1]; mouse, iv, 3 mg/kg): 1510 ng·h/mL
AUCinf ([1]; mouse, iv, 3 mg/kg): 1512.20 ng·h/mL
Cmax ([1]; mouse, iv, 3 mg/kg): 621.42 ng/mL
Vss ([1]; mouse, iv, 3 mg/kg): 5.51 L/kg
clearance ([1]; mouse, iv, 3 mg/kg): 33.06 mL/min/kg
t1/2 ([1]; mouse, iv, 3 mg/kg): 1.23 h
AUC(0-t) ([1]; mouse, po, 10 mg/kg): 3730 ng·h/mL
AUCinf ([1]; mouse, po, 10 mg/kg): 4103.86 ng·h/mL
Structure (SMILES): c1cc(-c2nc(N3CCOCC3)c3oc4ncc(CN5CCC6(CC5)COC6)cc4c3n2)c2cc[nH]c2c1 [B]

F ([1]; male, CD1, mouse): 73.77%
clearance ([1]; male, CD1, mouse, iv, 5 mg/kg): 21.12 mL/min/kg
clearance ([1]; male, mouse, iv): 21 mL/min/kg
Oral Bioavailability (F) ([1]; male, mouse, po, 10 mg/kg): 74
Structure (SMILES): c1cc(-c2nc(N3CCOCC3)c3oc4ncc(CN5C[C@@H]6C[C@H]5CO6)cc4c3n2)c2cc[nH]c2c1 [A]

GI50 ([2]; Compound GG alone, read-out: GI50 values for the individual cell lines (range)): 4.7 to 33 µM
GI50 ([2]; Compound GG alone, read-out: mean (±s.e.m) GI50 value across the whole panel): 17.3 µM
GI50 ([2]; Compound GG in the presence of 100 nM Compound A, read-out: GI50 values for the individual cell lines (range)): 1.7 to 35 µM
GI50 ([2]; Compound GG in the presence of 100 nM Compound A, read-out: mean (±s.e.m) GI50 value across the whole panel): 14.1 µM
Structure (SMILES): O=C(NO)c1ccc(CN(c2cnccn2)c2cnccn2)cc1 [Example GG, 4-{[Bis(pyrazin-2-yl)amino]methyl}-N-hydroxybenzamide]
potentiation of the pharmacological activity of Compound GG by Compound A [3]: potentiate
potentiation of the pharmacological activity of Compound GG by Compound A [4]: potentiate
potentiation of the pharmacological activity of Compound GG by Compound A [5]: potentiate

IC50 (Human HDAC1): > 10 µM
IC50 (Recombinant human HDAC6): 0.5 to 1 µM
Structure (SMILES): Cc1cccc(N(Cc2ccc(C(=O)NO)cc2)c2ccc(N3CCOCC3)cn2)n1 [Example CC, N-Hydroxy-4-(((6-methylpyridin-2-yl)(5-morpholinopyridin-2-yl)amino)methyl)benzamide]

IC50 (Human HDAC1): 1 to 10 µM
IC50 (Recombinant human HDAC6): ≤ 0.5 µM
Structure (SMILES): O=C(NO)c1ccc(CN(c2ccccn2)c2nccc3sccc23)cc1 [Example BB, N-Hydroxy-4-((pyridin-2-yl(thieno[3,2-c]pyridin-4-yl)amino)methyl)benzamide]

IC50 (Human HDAC1): > 10 µM
IC50 (Recombinant human HDAC6): ≤ 0.5 µM
Structure (SMILES): COc1cccnc1N(Cc1ccc(C(=O)NO)cn1)c1cnccn1 [Example LL, N-Hydroxy-6-{[(3-methoxypyridin-2-yl)(pyrazin-2-yl)amino]methyl}pyridine-3-carboxamide]

IC50 (Human HDAC1): > 10 µM
IC50 (Recombinant human HDAC6): ≤ 0.5 µM
Structure (SMILES): COc1cccnc1N(Cc1ccc(C(=O)NO)cc1)c1ccc(C)cn1 [Example X, N-Hydroxy-4-(((3-methoxypyridin-2-yl)-(5-methylpyridin-2-yl)amino)methyl)benzamide]

IC50 (Human HDAC1): > 10 µM
IC50 (Recombinant human HDAC6): ≤ 0.5 µM
Structure (SMILES): O=C(NO)c1ccc(CN(c2ccc(F)cn2)c2cnccn2)cc1 [Example L, 4-(((5-Fluoropyridin-2-yl)(pyrazin-2-yl)amino)methyl)-N-hydroxybenzamide]

Structure (SMILES): c1cc(-c2nc(N3CCOCC3)c3oc4ncc(CN5CCC56COC6)cc4c3n2)c2cc[nH]c2c1 [G]
F ([1]; male, Balb/c, mouse): 30%
clearance ([1]; male, mouse, summary table, mice, IV, read-out: Clearance): 26 mL/min/kg

IC50 (Human HDAC1): > 10 µM
IC50 (Recombinant human HDAC6): ≤ 0.5 µM
Structure (SMILES): Cn1c(N(Cc2ccc(C(=O)NO)cc2)c2ccccn2)nc2ccccc21 [Example J, N-Hydroxy-4-(((1-methyl-1H-benzo[d]imidazol-2-yl)(pyridin-2-yl)amino)methyl)benzamide]

From patent US20180243317A1, “COMPOSITIONS COMPRISING A PI3K INHIBITOR AND AN HDAC INHIBITOR” (KARUS THERAPEUTICS LTD, priority 2015, published 2018)
